Laboratory results reported in US8084465B2, “Derivatives of pryidone and use thereof” (Shanghai Genomics, Inc., priority 2003, dated 2011).

Legend:
[1] = system: rat liver fibrosis model induced by DMN (dimethyl nitrosamine); test: Rat liver fibrosis model induced by DMN, liver pathology; type: in vivo
Procedure: (§1) A rat liver fibrosis model was established by induction with CCl4 and DMN (dimethyl nitrosamine)) respectively, and treated with F351 for 4 weeks, 8 weeks. The livers of the animal were harvested to observe the pathologic results. The method was as follows:
(§2) (a) Generating a carbon tetrachloride model (injected intraperitoneally with 40% CCl4 mixed with oil, 0.4 ml/100 g, twice per week, for 4 continuous weeks) and a dimethyl nitrosamine liver fibrosis model (injected intraperitoneally with 1% DMN, 10 mg/Kg, twice per week, for 8 continuous weeks).
(§3) (b) The animals of these two models were intragastrically administered with F351 from the 0 day of the model establishment, with the dose at 250 mg/Kg, once per day, for 4 or 8 continuous weeks.

[2] = system: rat with liver fibrosis induced by DMN; test: Serum transaminase (ALT) level in the DMN liver fibrosis model; type: in vivo; details: DMN model + F351, week 4; DMN model group 74±18.25, control group 27±5.09; P<0.05
Procedure: as §2, §3
(§4) The rat liver fibrosis models established by induction with CCl4 and DMN were treated with F351 in the same manner in Example 3. The serum of the rats was extracted and the level of the serum transaminase was measured.

[3] = system: rat with liver fibrosis induced by CCl4; test: Serum transaminase (ALT) level in the CCl4 liver fibrosis model; type: in vivo; details: CCl4 model + F351, week 4; CCl4 model group 52±17.15, control group 27±5.09; P<0.05
Procedure: as §2, §3, §4

fibroblast = test: MTT assay, proliferation of fibroblast cultured in vitro; type: cell-based
Procedure: The inhibitory effect of F351 on the proliferation of fibroblast cultured in vitro was tested using the following method. F351 was dissolved in 0.5% DMSO. The fibroblast was treated with F351 of different amount (FIG. 1 and FIG. 2) for 5 days. The agent was refreshed once every 48 hrs. Pirfenidone was used in parallel experiments in order to compare the effects of these two agents.
MTT assay: […] cell suspension was added into each well of a 96-well plate, 4 parallel wells per group. The concentration of the agent and the culture time remained unchanged. Then 10 μL 5 g/L MTT (3-(4,5-dimethylthiazol-2-yl)-2,5-diphenyltetrazolium bromide) was added to each well for another 4 hrs of culture. 100 uL DMSO was added to each well. Gently vortex to make a uniform mixture. After about 10 mins, OD values at 570 nm and 630 nm were measured by an enzyme linked immune detector (BIO RAD 550). The cell viability rate was calculated in accordance with the following formula: Viability rate=[(experimental well OD570−experimental well OD630)/(control well OD570−control well OD630)]×100% Inhibition rate (or proliferation rate)=100%−viability rate

[4] = system: liver fibrosis model induced by DMN; test: Mortality of rats in the DMN liver fibrosis model; type: in vivo, rat
Procedure: as §2, §3
(§5) The rat liver fibrosis models established by induction with CCl4 and DMN were treated with F351 in the same manner in Example 3. The body weight and mortality of the rates were observed.

[5] = system: rat liver fibrosis model induced by CCl4; test: Rat liver fibrosis model induced by CCl4, liver pathology; type: in vivo; details: 4 weeks, 250 mg/Kg intragastrically once per day, model group S4-S6, P=0.001
Procedure: as §1, §2, §3

[6] = system: liver fibrosis model induced by CCl4; test: Mortality of rats in the CCl4 liver fibrosis model; type: in vivo; details: 250 mg/Kg once per day
Procedure: as §2, §3, §5

Cc1ccc(=O)n(-c2ccc(O)cc2)c1 [F351, 5-methyl-1-(4-hydroxylphenyl)-2-(1H)-pyridone]
liver lesion (hepatocyte necrosis, hemorrhage, collagen deposition, fibrosis) ([1]; week 4, 250 mg/Kg intragastrically once per day, versus model group, P<0.001): significantly reduced | fibrosis around the sinus (pathologic results) ([1]; week 8, 250 mg/Kg intragastrically once per day, versus control group): obviously better than the control group | ALT serum level [2]: 54±17.25 | ALT serum level [3]: 45±17.68 | activity for inhibiting the fibroblast viability (fibroblast; FIG. 2, versus Pirfenidone control): higher than that of the Pirfenidone control | inhibitory effect on the fibroblast (fibroblast; MTT assay, treated for 5 days, compared with Pirfenidone in parallel, FIG. 1 and FIG. 2): more significant than that of Pirfenidone | rats survived ([4]; week 4, 250 mg/Kg once per day, control group 7 of 25 rats survived): 24 | rats survived ([4]; week 8, 250 mg/Kg once per day, control group 2 of 25 rats survived): 18 | pathologic changes (fibrosis dimension around the central veins and the sinus) [5]: obviously reduced | mortality of the rats [6]: did not increase the mortality
